Experimental data from patent US20240391923A1, “METHIONINE ADENOSYLTRANSFERASE 2A INHIBITOR FOR TREATING MTAP DELETION-TYPE CANCER” (SUZHOU GENHOUSE BIO CO., LTD., priority 2022, published 2024).
Like-named read-outs stand apart in the source and are kept apart here.

Experiments:
[1] = test system: SDMA in human colon cancer cell line HCT116; test: Cell symmetric dimethylarginine (SDMA) test, In-cell Western, HCT116 (MTAP wild-type); assay type: cell-based; settings: Homo sapiens, HCT-116, 96 h
Excerpt: MAT2A catalyzes the reaction of L-methionine and ATP to generate SAM, inorganic phosphonic acid, and inorganic diphosphonic acid. SAM is an important methyl donor, and is a substrate of arginine methyltransferase 5 (PRMT5). PRMT5 catalyzes SDMA modification of multiple proteins within a cell. The intracellular SDMA modification level was detected by ICW (In-cell Western), and the inhibition of the test compound on the enzymatic activity of intracellular MAT2A was indirectly reflected.
In the present application, the human colon cancer cell line HCT116 and the corresponding HCT116-MTAP-knockout cell line were seeded into a 96-well cell culture plate at an appropriate cell density. After 24 h, the cells were treated using the test compounds diluted 1:4 fold at the highest concentration of 6 μM for 6 gradients, and a DMSO treatment group was set up separately. The cells were cultured in a 37° C./5% CO2 incubator for 4 days. To test the inhibitory activity of the test compounds against tumor cell SDMA, the medium was discarded, and the plate was washed 3 times with PBST. 4% paraformaldehyde was then used at room temperature for fixation for 20 min. The fixation solution was discarded, the plate was washed 3 times with PBST, and a special blocking solution was added to each well for blocking at room temperature for 2 h. The blocking solution was discarded. After the plate was washed 3 times with PBST, the plate was incubated with SDMA antibody at 4° C. overnight. The next day, the plate was washed 3 times with PBST. The secondary antibody and DRAQ5 were diluted to an appropriate concentration with the blocking solution, and incubated at room temperature for 2 h; the plate was washed 3 times with PBST, and the fluorescence signals at 700 nm and 800 nm were detected using a Li—COR Odyssey two-color near-infrared laser imager.
The data was then processed. After the corresponding background value was subtracted from each well, statistical analysis was performed on the 800 nm/700 nm ratio for each well, a sigmoidal dose-inhibition curve was plotted using a non-linear regression model, and IC50 values were fitted and calculated. Inhibition Rate (%)=(1−SDMA dose/SDMA DMSO control)*100. SDMA dose is the value of the drug treatment group, and SDMA DMSO control is the value of the DMSO control group.

[2] = test system: HCT116-MTAP wild-type (+/+)-cell strain; test: Tumor cell proliferation inhibition assay (CellTiter-Glo), HCT116-MTAP wild-type (+/+); assay type: cell-based; settings: Homo sapiens, 120 h, 5-day treatment
Protocol: (§1) After the HCT116-MTAP-knockout (−/−) cell strain, the HCT116-MTAP wild-type(+/+)-cell strain, the DOHH-2 cell strain, or the Hut-78 cell strain was treated with the test compound for 5 days, the ATP level was measured using a CellTiter-Glo kit of Promega to evaluate the inhibition of the test compound against the growth of the tumor cell strain.
(§2) In the present application, the HCT116-MTAP-knockout (−/−) cell strain, the HCT116-MTAP wild-type (+/+)-cell strain, the DOHH-2 cell strain, or the Hut-78 cell strain was seeded into a 96-well cell culture plate at an appropriate cell density. After 24 h, the cells were treated using the test compounds diluted 1:3 fold at the highest concentration of 10 μM for 10 gradients, and a DMSO treatment group was set up separately. The cells were cultured in a 37° C./5% CO2 incubator for 5 days.

[3] = test system: SDMA in HCT116-MTAP-knockout cell line; test: Cell symmetric dimethylarginine (SDMA) test, In-cell Western, HCT116-MTAP-knockout; assay type: cell-based; settings: Homo sapiens, 96 h
[4] = test system: HCT116-MTAP-knockout (−/−) cell strain; test: Tumor cell proliferation inhibition assay (CellTiter-Glo), HCT116-MTAP-knockout (-/-); assay type: cell-based; settings: Homo sapiens, 120 h, 5-day treatment
Protocol: as §1, §2

[5] = target: MAT2A recombinant protein (Homo sapiens, UniProt P31153); test: MAT2A inhibitory activity (malachite green colorimetric enzyme assay); assay type: biochemical
Chain of MAT2A recombinant protein (P31153 whole entry): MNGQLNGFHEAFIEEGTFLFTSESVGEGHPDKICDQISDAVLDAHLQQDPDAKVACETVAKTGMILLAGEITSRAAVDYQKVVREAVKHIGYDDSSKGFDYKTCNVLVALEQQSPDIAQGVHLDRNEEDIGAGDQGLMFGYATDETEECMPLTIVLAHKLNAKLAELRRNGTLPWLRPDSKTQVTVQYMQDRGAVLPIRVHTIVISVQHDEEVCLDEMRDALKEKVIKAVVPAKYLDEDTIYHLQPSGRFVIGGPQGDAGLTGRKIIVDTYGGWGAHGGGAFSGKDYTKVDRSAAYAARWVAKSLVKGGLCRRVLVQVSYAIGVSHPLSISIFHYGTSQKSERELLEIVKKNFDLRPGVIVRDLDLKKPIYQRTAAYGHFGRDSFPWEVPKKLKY
Excerpt: MAT2A catalyzes the reaction of L-methionine and ATP to generate S-adenosylmethionine (SAM), inorganic phosphonic acid, and inorganic diphosphonic acid. Malachite green reacts with inorganic phosphonic acid to generate a green product, and the enzyme activity of MAT2A can be indirectly reflected by detecting the content of the inorganic phosphonic acid in a sample.
The test compounds were formulated using DMSO and diluted 1:3 diluted through 10 concentration points to give a final starting concentration in the reaction system of 1000 nM. The test compounds at different concentrations described above were transferred to a 384-well plate. Experimental buffer (50 mM HEPES pH 7.5, 50 mM KCl, 10 mM MgCl2, 10 mM DTT) was prepared. 2×MAT2A recombinant protein was prepared using the buffer and added to a 384-well plate. A mixed solution of 2×L-methionine and ATP was prepared using the buffer, and added to a 384-well plate. The enzymatic reaction was started, and the reaction was carried out at room temperature for 60 min. 20 μL of a colorimetric detection reagent was added to the above system, and incubated at room temperature for 15 min. The absorbance at 630 nm was measured. The inhibition rate of the compound on the enzyme activity was calculated, and the inhibition rate value and the logarithm value of the compound concentration were fitted using non-linear regression (dose response-variable slope) to give the IC50 value of the test compound.

[6] = IC50 score class, read-out: Cell 96 h SDMA Inhibition (HCT116-MTAP+/+) (score)
[7] = read-out: Cell 96 h SDMA inhibition (HCT116-MTAP+/+)
[8] = HCT116-MTAP wild-type (+/+) cells, IC50 score, read-out: Tumor cell 5-day relative growth inhibition (HCT116-MTAP+/+) (nM), score
[9] = HCT116-MTAP wild-type (+/+) cells, IC50 value, read-out: Tumor cell 5-day relative growth inhibition (HCT116-MTAP+/+)
[10] = IC50 score class, read-out: Cell 96 h SDMA Inhibition (HCT116-MTAP−/−) (score)
[11] = read-out: Cell 96 h SDMA Inhibition (HCT116-MTAP−/−)
[12] = HCT116-MTAP-knockout (−/−) cells, IC50 score, read-out: Tumor cell 5-day relative growth inhibition (HCT116-MTAP−/−) (nM), score
[13] = HCT116-MTAP-knockout (−/−) cells, IC50 value, read-out: Tumor cell 5-day relative growth inhibition (HCT116-MTAP−/−)
[14] = IC50 score class, read-out: MAT2A Inhibition (score)
[15] = HCT116-MTAP+/+ cells, IC50 class score, read-out: Tumor cell 5-day relative growth inhibition (HCT116-MTAP+/+) (nM), score
[16] = HCT116-MTAP+/+ cells, read-out: Tumor cell 5-day relative growth inhibition (HCT116-MTAP+/+)
[17] = HCT116-MTAP−/− cells, IC50 class score, read-out: Tumor cell 5-day relative growth inhibition (HCT116-MTAP−/−) (nM), score
[18] = HCT116-MTAP−/− cells, read-out: Tumor cell 5-day relative growth inhibition (HCT116-MTAP−/−)

SMILES | IC50 [1, 6] [µM] | IC50 [1, 7] [µM] | IC50 [2, 8] [nM] | IC50 [2, 9] [nM] | IC50 [3, 10] [µM] | IC50 [3, 11] [µM] | IC50 [4, 12] [nM] | IC50 [4, 13] [nM] | IC50 [5, 14] [µM] | IC50 ([5]; read-out: MAT2A Inhibition) [µM] | IC50 [2, 15] [nM] | IC50 [2, 16] [nM] | IC50 [4, 17] [nM] | IC50 [4, 18] [nM]
Cn1cc2c(n1)c(=O)n(-c1cccnc1C(F)(F)F)c1cc(Cl)c(F)cc21 (single isomer, unassigned) [Compound B389] | > 3 | > 10 | ≥ 2000 | > 10000 | < 0.2 | 0.02 | < 500 | 223 |  |  |  |  |  | 
Cn1cc2c(n1)c(=O)n(-c1cccnc1C(F)(F)F)c1nc(C(F)(F)F)ccc21 [Compound B80] | > 3 | > 3 | ≥ 2000 | 23300 | 0.2 to 1 | 0.218 | < 500 | 81.7 |  |  |  |  |  | 
Cc1c2c(nn1C(F)F)c(=O)n(-c1cccnc1)c1nc(C(F)(F)F)ccc21 [Compound B252] |  |  | 500 to 2000 | 1230 | 0.2 to 1 | 0.202 | < 500 | 378 | < 0.1 | 0.0193 |  |  |  | 
Cn1cc2c(n1)c(=O)n(-c1cccc3[nH]ncc13)c1cc(Cl)cnc21 [Compound B273] |  |  | ≥ 2000 | 7600 | 0.2 to 1 | 0.517 | 500 to 2000 | 1400 | < 0.1 | 0.083 |  |  |  | 
Cc1n[nH]c2cccc(-n3c(=O)c4nn(C)cc4c4ccc(Cl)cc43)c12 [Compound B277] |  |  | 500 to 2000 | 875 | < 0.2 | 0.061 | < 500 | 327 | < 0.1 | 0.083 |  |  |  | 
O=c1c2nn(C(F)F)cc2c2cc(F)c(Cl)cc2n1-c1cccnc1C1CC1 [Compound B337] | > 3 | > 10 | ≥ 2000 | > 10000 |  |  | 500 to 2000 | 579 |  |  |  |  |  | 
Cn1cnc2c(=O)n(-c3ccc4ncccc4c3)c3nc(C(F)(F)F)ccc3c21 [Compound B401] |  |  |  |  |  |  |  |  |  |  | ≥ 2000 | > 10000 | ≥ 2000 | > 10000
Cn1cnc2c(=O)n(-c3ccc4ccccc4n3)c3nc(C(F)(F)F)ccc3c21 [Compound B402] |  |  |  |  |  |  |  |  | > 1 | > 10 | ≥ 2000 | > 10000 | ≥ 2000 | > 10000
Cn1cnc2c(=O)n(-c3cnc4ccccc4c3)c3nc(C(F)(F)F)ccc3c21 [Compound B403] |  |  |  |  |  |  |  |  | > 1 | > 10 | ≥ 2000 | > 10000 | ≥ 2000 | > 10000
Cn1cnc2c(=O)n(-c3ccc4ccccc4c3)c3nc(C(F)(F)F)ccc3c21 [Compound B404] |  |  |  |  |  |  |  |  | > 1 | > 10 | ≥ 2000 | > 10000 | ≥ 2000 | > 10000
Cn1cnc2c(=O)n(-c3ccc4ncccc4n3)c3nc(C(F)(F)F)ccc3c21 [Compound B405] |  |  |  |  |  |  |  |  | > 1 | > 10 | ≥ 2000 | > 10000 | ≥ 2000 | > 10000
Cn1cnc2c(=O)n(-c3cncc4ccccc34)c3nc(C(F)(F)F)ccc3c21 [Compound B406] |  |  |  |  |  |  |  |  |  |  | ≥ 2000 | > 10000 | ≥ 2000 | > 10000
Cn1cnc2c(=O)n(-c3cccc4ccncc34)c3nc(C(F)(F)F)ccc3c21 [Compound B407] |  |  |  |  |  |  |  |  |  |  | ≥ 2000 | > 10000 | ≥ 2000 | > 10000
Cn1cnc2c(=O)n(-c3cccc4ncccc34)c3nc(C(F)(F)F)ccc3c21 [Compound B408] |  |  |  |  |  |  |  |  |  |  | ≥ 2000 | > 10000 | ≥ 2000 | > 10000
O=c1c2n[nH]cc2c2ccc(C(F)(F)F)nc2n1-c1ccccc1Cl [Compound B409] |  |  |  |  |  |  |  |  |  |  | ≥ 2000 | 4040 | 500 to 2000 | 1530
Cn1ncc2c3ccc(C(F)(F)F)nc3n(-c3ccccc3Cl)c(=O)c21 [Compound B410] |  |  |  |  |  |  |  |  | > 1 | > 10 | ≥ 2000 | > 10000 | ≥ 2000 | > 10000
